# According to patent US8541411B2, “Benzimidazole derivatives as PI3 kinase inhibitors” (GlaxoSmithKline LLC, priority 2010, dated 2013):
# Target: T1, PI3Kβ (Homo sapiens, UniProt P42338)
# T1 construct: made in house
# Assay: HTRF in vitro profiling assay for PI3K inhibition, beta isoform
# Format: biochemical
# Conditions: one experimental run or average of two or more runs; 200 pM enzyme, 100 uM ATP, 10 uM PIP2; read-out: P13KB PIC50 MEAN (converted)
# Description: The PI3-Kinase profiling assays were developed to measure the compound-dependent inhibition of the alpha, beta, delta, and gamma isoforms of PI3K in an in vitro catalytic assay. This assay was developed and optimized from a kit produced by Upstate (Millipore catalog #33-017). Briefly, this procedure utilizes a pre-formed HTRF (Homogeneous Time-Resolved Fluorescence energy transfer) complex between four binding partners: 1) biotinylated PIP3, 2) GST tagged pleckstrin homology (PH) domain, 3) Europium labeled anti-GST monoclonal antibody, and 4) Streptavidin-Allophycocyanin (APC). The native PIP3 produced by PI 3-Kinase activity displaces biotin-PIP3 from the PH domain, resulting in the dissociation of the HTRF complex and a decrease in the fluorescence signal. The format of this assay is the same for all 4 isoforms of PI3K; the differences lie in the concentration of enzyme used to achieve the most robust signal. The alpha and delta assays are run at 400 pM enzyme; the beta assay is at 200 pM enzyme and the gamma assay is run at 1 nM enzyme. In addition, the alpha, beta and delta assays are run with 150 mM NaCl while the gamma assay is run in the absence of NaCl. The ATP concentration is 100 uM in the alpha, beta, and delta assays and 15 uM ATP in the gamma assay. All reactions are run at 10 uM PIP2
# Compounds were serially diluted (3-fold in 100% DMSO) across a 384-well polypropylene mother plate from column 1 to column 12 and column 13 to column 24, to yield 11 concentrations for each test compound. Columns 6 and 18 contain only DMSO. Once titrations were made, 0.05 μL was transferred to a 384-well low-volume assay plate (Greiner 784076). This assay plate contained three pharmacological controls (known PI3K inhibitors) and 3 assay controls: (1) Enzyme without inhibitor; (2) Buffer minus enzyme, and (3) Buffer minus enzyme plus native PIP3. DMSO was stamped into all wells of columns 6 and 18. PIP3 was added at 40 μM in 1× Reaction buffer (1 μL of 200 μM PIP3) to alternating rows of column 18 (wells 18 B, D, F, H, J, L, N, P). The no-enzyme control reactions were run in wells 18 A, C, E, G, I, K, M, O (0.1 μL of 100% DMSO).
# The PI3-Kinase profiling assay was optimized using the HTRF kit provided by Upstate (Millipore). The assay kit contained seven reagents: 1) 4× Reaction Buffer; 2) native PIP2 (substrate); 3) Stop A (EDTA); 4) Stop B (Biotin-PIP3); 5) Detection Mix A (Streptavidin-APC); 6) Detection Mix B (Eu-labeled Anti-GST plus GST-tagged PH-domain); 7) Detection Mix C (KF). In addition, the following items were obtained or purchased: PI3Kinase (prepared by GSK BR&AD), dithiothreitol (Sigma, D-5545), Adenosine-5′-triphosphate (ATP, Teknova cat. #A0220), native PIP3 (1,2-dioctanoyl-sn-glycero-3-[phosphoinositil-3,4,5-triphosphate]tetraammonium salt (Avanti polar lipids, 850186P), DMSO (Sigma, 472301).
# PI3Kinase Reaction Buffer was prepared by diluting the stock 1:4 with de-ionized water. Freshly prepared DTT was added at a final concentration of 5 mM on the day of use. Enzyme addition and compound pre-incubation were initiated by the addition of 2.5 μL of PI3K (at twice its final concentration) in 1× reaction buffer to all wells using a Multidrop Combi. Plates were incubated at room temperature for 15 minutes. Reactions were initiated by addition of 2.5 μL of 2× substrate solution (PIP2 and ATP in 1× reaction buffer) using a Multidrop Combi. Plates were incubated at room temperature for one hour. Reactions were quenched by the addition of 2.5 μL of stop solution (Stop A and Stop B pre-mixed at a ratio of 5:1, respectively) to all wells using the Multidrop Combi.
# T1 sequence (P42338 whole entry): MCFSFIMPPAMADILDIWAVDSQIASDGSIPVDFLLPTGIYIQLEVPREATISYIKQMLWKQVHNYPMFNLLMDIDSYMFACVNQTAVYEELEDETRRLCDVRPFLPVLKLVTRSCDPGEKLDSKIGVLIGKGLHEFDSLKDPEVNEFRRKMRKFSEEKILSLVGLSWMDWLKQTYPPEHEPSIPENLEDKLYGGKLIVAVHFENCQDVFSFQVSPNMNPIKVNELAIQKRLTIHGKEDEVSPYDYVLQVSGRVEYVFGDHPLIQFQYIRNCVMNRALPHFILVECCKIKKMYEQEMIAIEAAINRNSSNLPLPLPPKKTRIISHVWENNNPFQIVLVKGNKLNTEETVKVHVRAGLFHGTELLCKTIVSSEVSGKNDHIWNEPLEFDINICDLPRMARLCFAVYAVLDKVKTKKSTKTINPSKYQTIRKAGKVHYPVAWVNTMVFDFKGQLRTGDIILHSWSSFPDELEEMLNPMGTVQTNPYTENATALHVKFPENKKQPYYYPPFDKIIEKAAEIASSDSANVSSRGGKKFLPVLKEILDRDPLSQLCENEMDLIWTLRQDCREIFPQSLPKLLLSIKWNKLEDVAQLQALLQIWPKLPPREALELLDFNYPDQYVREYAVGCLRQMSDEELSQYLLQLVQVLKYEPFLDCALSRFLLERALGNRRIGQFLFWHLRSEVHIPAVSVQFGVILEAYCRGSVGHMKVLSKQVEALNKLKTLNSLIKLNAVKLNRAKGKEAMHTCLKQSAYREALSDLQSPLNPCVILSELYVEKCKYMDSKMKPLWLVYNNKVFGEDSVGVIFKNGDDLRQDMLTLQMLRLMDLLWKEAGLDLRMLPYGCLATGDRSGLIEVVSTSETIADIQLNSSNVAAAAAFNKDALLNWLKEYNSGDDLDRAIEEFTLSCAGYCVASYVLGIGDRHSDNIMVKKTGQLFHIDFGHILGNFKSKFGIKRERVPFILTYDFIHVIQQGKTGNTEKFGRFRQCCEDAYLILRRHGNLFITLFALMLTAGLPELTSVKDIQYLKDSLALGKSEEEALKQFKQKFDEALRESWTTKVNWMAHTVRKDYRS
# T1 sequence (P27986 whole entry partner): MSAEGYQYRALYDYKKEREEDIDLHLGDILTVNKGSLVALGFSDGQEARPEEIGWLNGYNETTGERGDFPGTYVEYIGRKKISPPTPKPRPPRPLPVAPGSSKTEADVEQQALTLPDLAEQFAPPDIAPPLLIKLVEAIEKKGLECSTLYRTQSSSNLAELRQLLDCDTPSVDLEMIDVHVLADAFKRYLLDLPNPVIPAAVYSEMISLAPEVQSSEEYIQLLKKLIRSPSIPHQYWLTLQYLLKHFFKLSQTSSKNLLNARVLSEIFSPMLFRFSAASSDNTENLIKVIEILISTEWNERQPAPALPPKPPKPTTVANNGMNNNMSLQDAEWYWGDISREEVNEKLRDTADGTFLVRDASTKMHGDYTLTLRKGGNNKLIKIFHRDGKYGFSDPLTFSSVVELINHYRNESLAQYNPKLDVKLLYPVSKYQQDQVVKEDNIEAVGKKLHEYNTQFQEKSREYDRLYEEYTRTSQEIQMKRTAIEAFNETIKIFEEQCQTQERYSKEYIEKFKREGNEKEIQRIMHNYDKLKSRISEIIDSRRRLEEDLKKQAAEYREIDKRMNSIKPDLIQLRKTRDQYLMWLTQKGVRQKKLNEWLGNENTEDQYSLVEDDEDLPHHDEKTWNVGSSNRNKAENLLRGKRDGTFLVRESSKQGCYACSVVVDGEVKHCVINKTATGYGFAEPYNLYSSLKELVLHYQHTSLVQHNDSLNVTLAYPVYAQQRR
row,SMILES,IC50
1,"CC(=O)c1cc(N2CCOCC2)cc2c1nc(C)n2Cc1cccc2ccccc12 [Example 41, 1-[2-methyl-6-(4-morpholinyl)-1-(1-naphthalenylmethyl)-1H-benzimidazol-4-yl]ethanone]",1.58 nM
2,"CCc1nc2c(O)cc(N3CCOCC3)cc2n1Cc1cccc(Cl)c1Cl [Example 14, 1-[(2,3-dichlorophenyl)methyl]-2-ethyl-6-(4-morpholinyl)-1H-benzimidazol-4-ol]",3.16 nM
3,"Cc1c(Cn2c(C)nc3c(Br)cc(N4CCOCC4)cc32)cccc1C(F)(F)F [Example 63, 4-bromo-2-methyl-1-{[2-methyl-3-(trifluoromethyl)phenyl]methyl}-6-(4-morpholinyl)-1H-benzimidazole]",1 nM
4,"Cc1c(Cn2c(C(F)(F)F)nc3c(C(N)=O)cc(N4CCOCC4)cc32)cccc1C(F)(F)F [Example 54, 1-{[2-methyl-3-(trifluoromethyl)phenyl]methyl}-6-(4-morpholinyl)-2-(trifluoromethyl)-1H-benzimidazole-4-carboxamide]",2.51 nM
5,"CC(=O)Nc1cc(N2CCOCC2)cc2c1nc(C)n2Cc1cccc2ccccc12 [Example 3, N-(2-Methyl-6-morpholin-4-yl-1-naphthalen-1-ylmethyl-1H-benzoimidazol-4-yl)-acetamide]",200 nM
6,"Cc1c(Cn2c(C)nc3c(-c4nnc[nH]4)cc(N4CCOCC4)cc32)cccc1C(F)(F)F [Example 39, 2-methyl-1-{[2-methyl-3-(trifluoromethyl)phenyl]methyl}-6-(4-morpholinyl)-4-(1H-1,2,4-triazol-3-yl)-1H-benzimidazole]",0.631 nM
7,"O=C(O)c1cc(N2CCOCC2)cc2c1nc(C(F)(F)F)n2Cc1cccc2ccccc12 [Example 50, 6-(4-morpholinyl)-1-(1-naphthalenylmethyl)-2-(trifluoromethyl)-1H-benzimidazole-4-carboxylic acid]",1.26 nM
8,"Cc1c(Cl)cccc1Cn1c(C(F)F)nc2c(C(=O)O)cc(N3CCOCC3)cc21 [Example 72, 1-[(3-chloro-2-methylphenyl)methyl]-2-(difluoromethyl)-6-(4-morpholinyl)-1H-benzimidazole-4-carboxylic acid]",1.58 nM
9,"Cc1nc2c(C#N)cc(N3CCOCC3)cc2n1Cc1cccc(Cl)c1Cl [Example 32, 1-[(2,3-dichlorophenyl)methyl]-2-methyl-6-(4-morpholinyl)-1H-benzimidazole-4-carbonitrile]",12.6 nM
10,"Cc1nc2c(C(=O)O)cc(N3CCOCC3)cc2n1Cc1cccc2ccsc12 [Example 73, 1-(1-benzothien-7-ylmethyl)-2-methyl-6-(4-morpholinyl)-1H-benzimidazole-4-carboxylic acid]",25.1 nM
11,"Cc1c(Cn2c(C)nc3c(CO)cc(N4CCOCC4)cc32)cccc1C(F)(F)F [Example 43, [2-methyl-1-{[2-methyl-3-(trifluoromethyl)phenyl]methyl}-6-(4-morpholinyl)-1H-benzimidazol-4-yl]methanol]",5.01 nM
12,"Cc1c(Cl)cccc1Cn1c(C(F)(F)F)nc2c(C(=O)O)cc(N3CCOCC3)cc21 [Example 53, 1-[(3-chloro-2-methylphenyl)methyl]-6-(4-morpholinyl)-2-(trifluoromethyl)-1H-benzimidazole-4-carboxylic acid]",0.501 nM
13,"Cc1nc2c(-c3nnn[nH]3)cc(N3CCOCC3)cc2n1Cc1cccc2ccccc12 [Example 58, 2-methyl-6-(4-morpholinyl)-1-(1-naphthalenylmethyl)-4-(1H-tetrazol-5-yl)-1H-benzimidazole]",6.31 nM
14,"CC(C)c1nc2c(O)cc(N3CCOCC3)cc2n1Cc1cccc(Cl)c1Cl [Example 13, 1-[(2,3-dichlorophenyl)methyl]-2-(1-methylethyl)-6-(4-morpholinyl)-1H-benzimidazol-4-ol]",7.94 nM
15,"CCc1nc2c(F)cc(N3CCOCC3)cc2n1Cc1cccc(Cl)c1Cl [Example 18, 1-[(2,3-dichlorophenyl)methyl]-2-ethyl-4-fluoro-6-(4-morpholinyl)-1H-benzimidazole]",10 nM
16,"Cc1nc2c(C(=O)O)cc(N3CCOCC3)cc2n1Cc1cccc2cccnc12 [Example 35, 2-methyl-6-(4-morpholinyl)-1-(8-quinolinylmethyl)-1H-benzimidazole-4-carboxylic acid]",63.1 nM
17,"Cc1nc2c(C(=O)O)cc(N3CCOCC3)cc2n1Cc1cccc(Cl)c1Cl [Example 22, 1-[(2,3-dichlorophenyl)methyl]-2-methyl-6-(4-morpholinyl)-1H-benzimidazole-4-carboxylic acid]",15.8 nM
18,"Cc1nc2c(C(=O)O)cc(N3CCOCC3)cc2n1Cc1cccc2ccccc12 [Example 20, 2-methyl-6-(4-morpholinyl)-1-(1-naphthalenylmethyl)-1H-benzimidazole-4-carboxylic acid]",6.31 nM
19,"Cc1c(Cn2c(C(F)F)nc3c(C(=O)O)cc(N4CCOCC4)cc32)cccc1C(F)(F)F [Example 70, 2-(difluoromethyl)-1-{[2-methyl-3-(trifluoromethyl)phenyl]methyl}-6-(4-morpholinyl)-1H-benzimidazole-4-carboxylic acid]",0.2 nM
20,"Cc1nc2c(C(=O)O)cc(N3CCOCC3)cc2n1Cc1ccc(Cl)c(Cl)c1 [Example 38, 1-[(3,4-dichlorophenyl)methyl]-2-methyl-6-(4-morpholinyl)-1H-benzimidazole-4-carboxylic acid]",100 nM
21,"Cc1nc2c(F)cc(N3CCOCC3)cc2n1Cc1cccc2ccccc12 [Example 15, 4-fluoro-2-methyl-6-(4-morpholinyl)-1-(1-naphthalenylmethyl)-1H-benzimidazole]",1 nM
22,"Cc1nc2c(O)cc(N3CCOCC3)cc2n1Cc1cccc2ccccc12 [Example 5, 2-methyl-6-(4-morpholinyl)-1-(1-naphthalenylmethyl)-1H-benzimidazol-4-ol]",1.58 nM
23,"CCc1nc2c(F)cc(N3CCOCC3)cc2n1Cc1cccc2ccccc12 [Example 17, 2-ethyl-4-fluoro-6-(4-morpholinyl)-1-(1-naphthalenylmethyl)-1H-benzimidazole]",2.51 nM
24,"Cc1c(Cl)cccc1Cn1c(C)nc2c(C(=O)O)cc(N3CCOCC3)cc21 [Example 59, 1-[(3-chloro-2-methylphenyl)methyl]-2-methyl-6-(4-morpholinyl)-1H-benzimidazole-4-carboxylic acid]",6.31 nM
25,"Cc1nc2c(-c3nnc[nH]3)cc(N3CCOCC3)cc2n1Cc1cccc2ccccc12 [Example 25, 2-methyl-6-(4-morpholinyl)-1-(1-naphthalenylmethyl)-4-(1H-1,2,4-triazol-3-yl)-1H-benzimidazole]",0.251 nM
26,"CC(C)c1nc2c(O)cc(N3CCOCC3)cc2n1Cc1cccc2ccccc12 [Example 11, 2-(1-methylethyl)-6-(4-morpholinyl)-1-(1-naphthalenylmethyl)-1H-benzimidazol-4-ol]",2 nM
